Results from publication PMC6099706, “Anti-Mycobacterium tuberculosis Activity of Esters of Quinoxaline 1,4-Di-N-Oxide” (Molecules : A Journal of Synthetic Chemistry and Natural …, 2018).
In brackets after ≈: the same amount, converted by molar mass.

Key:
[1] = test system: Mycobacterium tuberculosis strain H37Rv; assay: microplate Alamar blue assay (MABA); format: cell-based; details: for MIC: Mycobacterium tuberculosis, H37RV; for MIC / MABA MIC: M. tuberculosis H37Rv, lowest concentration effecting 90% inhibition; for MABA percentage in parentheses after the MIC bound: meaning not defined in the paper, printed beside the highest concentration
[2] = test system: nonreplicating persistent (NRP) M. tuberculosis strain; assay: microbe, parasite or virus in culture; format: cell-based, Mycobacterium tuberculosis; details: for MIC: Mycobacterium tuberculosis, read-out: LORA MIC; for LORA percentage in parentheses after the MIC bound: meaning not defined in the paper, printed beside the highest concentration
[3] = target: M. tuberculosis gyrase (GyrA and Gyr B subunits) (Mycobacterium tuberculosis, UniProt P9WG45+P9WG47); assay: M. tuberculosis gyrase supercoiling assay; format: biochemical; details: at 50 μM
M. tuberculosis gyrase (GyrA and Gyr B subunits), sequence (P9WG45 whole entry): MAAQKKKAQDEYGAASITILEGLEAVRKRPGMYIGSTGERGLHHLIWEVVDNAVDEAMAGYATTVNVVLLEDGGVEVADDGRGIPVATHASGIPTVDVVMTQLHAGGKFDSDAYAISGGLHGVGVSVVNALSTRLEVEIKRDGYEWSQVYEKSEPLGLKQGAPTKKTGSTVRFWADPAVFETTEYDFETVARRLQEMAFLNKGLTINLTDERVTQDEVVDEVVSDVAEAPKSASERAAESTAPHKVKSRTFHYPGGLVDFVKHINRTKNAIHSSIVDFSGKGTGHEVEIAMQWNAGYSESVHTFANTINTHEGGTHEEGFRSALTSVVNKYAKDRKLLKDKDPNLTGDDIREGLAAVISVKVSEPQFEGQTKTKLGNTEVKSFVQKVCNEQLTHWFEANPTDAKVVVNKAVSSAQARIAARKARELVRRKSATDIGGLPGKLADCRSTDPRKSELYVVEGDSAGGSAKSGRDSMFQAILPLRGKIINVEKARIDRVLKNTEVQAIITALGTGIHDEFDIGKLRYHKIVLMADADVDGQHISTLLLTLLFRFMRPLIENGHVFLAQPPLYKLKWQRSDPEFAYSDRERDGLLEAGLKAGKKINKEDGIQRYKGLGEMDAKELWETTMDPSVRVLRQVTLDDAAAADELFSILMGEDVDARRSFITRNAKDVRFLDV
M. tuberculosis gyrase (GyrA and Gyr B subunits), sequence (P9WG47 whole entry): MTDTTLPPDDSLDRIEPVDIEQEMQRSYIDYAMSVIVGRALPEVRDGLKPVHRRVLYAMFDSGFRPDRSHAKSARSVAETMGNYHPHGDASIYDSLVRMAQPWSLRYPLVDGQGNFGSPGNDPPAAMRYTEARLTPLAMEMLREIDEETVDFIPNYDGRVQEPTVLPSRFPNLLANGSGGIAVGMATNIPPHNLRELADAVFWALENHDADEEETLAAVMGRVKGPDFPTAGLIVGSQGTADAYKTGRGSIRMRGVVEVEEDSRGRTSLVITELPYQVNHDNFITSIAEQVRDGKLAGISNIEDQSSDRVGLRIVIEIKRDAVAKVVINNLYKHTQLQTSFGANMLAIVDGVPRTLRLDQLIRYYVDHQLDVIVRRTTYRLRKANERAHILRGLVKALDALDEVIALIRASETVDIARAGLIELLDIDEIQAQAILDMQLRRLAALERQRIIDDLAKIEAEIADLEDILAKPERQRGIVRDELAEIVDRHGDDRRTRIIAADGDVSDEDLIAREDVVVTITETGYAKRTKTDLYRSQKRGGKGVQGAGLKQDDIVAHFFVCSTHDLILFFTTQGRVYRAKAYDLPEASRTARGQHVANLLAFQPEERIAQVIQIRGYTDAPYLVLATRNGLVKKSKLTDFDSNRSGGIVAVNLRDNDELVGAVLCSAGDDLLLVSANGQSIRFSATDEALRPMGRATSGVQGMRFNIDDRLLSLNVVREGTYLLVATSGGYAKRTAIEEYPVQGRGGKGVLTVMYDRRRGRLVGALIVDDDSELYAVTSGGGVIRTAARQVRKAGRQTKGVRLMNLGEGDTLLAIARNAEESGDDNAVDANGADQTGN
Method: The activity of the enzyme was determined prior to the testing of the quinoxaline 1,4-di-N-oxide derivatives and 1 U was defined as the amount of enzyme required to just fully supercoil the substrate under test conditions. Compounds were tested at 50 μM. Final DMSO concentration in the assays was 1% (v/v).
1 U of M. tuberculosis gyrase (GyrA and Gyr B subunits) (final concentration in assay 50 nM) was incubated with 0.5 μg of relaxed pBR322 DNA in a 30 μL reaction at 37 °C for 30 min under the following conditions: 50 mM HEPES. KOH (pH 7.9), 6 mM magnesium acetate, 4 mM DTT, 1 mM ATP, 100 mM potassium glutamate, 2 mM spermidine and 0.05 mg/mL albumin.
Each reaction was stopped by the addition of 30 μL chloroform/iso-amyl alcohol (26:1) and 20 μL Stop Dye (40% sucrose, 100 mM Tris.HCl (pH 7.5), 10 mM EDTA, 0.5 μg/mL bromophenol blue), before being loaded on a 1.0% TAE (Tris.acetate […], EDTA […]) gel run at 80 V for 2 h.
Bands were visualized by ethidium staining for 10 min, destained for 10 min in water, analyzed by gel documentation equipment (Syngene, Cambridge, UK), and quantified using Syngene software (Genetools version 4.00 (1997–1998), Syngene, A division of Synoptics Corp, Cambridge, UK).
Raw gel data (fluorescent band volumes) collected from Syngene’s GeneTools gel analysis software were converted to a % of the 100% control (the supercoiled enzyme plus DMSO control DNA band). These were analyzed using SigmaPlot Version 13.0 (Systat Software Inc., London, UK; 2016).

M. tb H37Rv = assay: MIC on M. tb H37Rv (Table 4 panel); format: cell-based; details: Mycobacterium tuberculosis
[4] = nonreplicating persistent strain

## CCOC(=O)c1c(C)[n+]([O-])c2ccc(C(=O)OC(C)C)cc2[n+]1[O-] [Compound T-065]
[1]
  MIC: 0.7 µg/mL (≈ 2.09 µM)
[2]; [4]
  MIC: 0.5 µg/mL (≈ 1.5 µM)

## COC(=O)c1ccc2c(c1)[n+]([O-])c(C(=O)C(C)C)c(C(F)(F)F)[n+]2[O-] [Compound T-039]
[1]
  MIC: 1.54 µg/mL (≈ 4.3 µM)
[2]; [4]
  MIC: 0.83 µg/mL (≈ 2.32 µM)

## CCCOC(=O)c1ccc2no[n+]([O-])c2c1 [Compound T-074]
[1]
  MIC: 0.87 µg/mL (≈ 3.92 µM)
[2]; [4]
  MIC: 4.62 µg/mL (≈ 20.8 µM)

## CCCOC(=O)c1ccc2c(c1)[n+]([O-])c(C(=O)C(C)C)c(C(F)(F)F)[n+]2[O-] [Compound T-111]
[1]
  MIC: 1.5 µg/mL (≈ 3.88 µM)

## COC(=O)c1cc2c(cc1OC)no[n+]2[O-] [Compound T-036]
[1]
  MABA MIC: >128 µg/mL
  MIC: > 100 µg/mL

## CCC(=O)c1c(C(F)(F)F)[n+]([O-])c2ccc(C(=O)OC)cc2[n+]1[O-] [Compound T-038]
[1]
  MIC: < 0.4 µg/mL
[3]
  inhibitory effect on M. tuberculosis gyrase supercoiling: none of the compounds showed an inhibitory effect

## COC(=O)c1ccc2no[n+]([O-])c2c1 [Compound T-014]
[1]
  MIC: 7.6 µg/mL (≈ 39.1 µM)
[2]; [4]
  MIC: 13 µg/mL (≈ 66.9 µM)

## CCOC(=O)c1ccc2c(c1)[n+]([O-])c(C(=O)c1ccccc1)c(C)[n+]2[O-] [Compound T-004]
[1]
  MIC: 2.32 µg/mL (≈ 6.58 µM)
[2]; [4]
  MIC: 0.61 µg/mL (≈ 1.73 µM)

## Cc1c(C(N)=O)[n+]([O-])c2cc(C(=O)OC(C)C)ccc2[n+]1[O-] [Compound T-108]
[1]
  MIC: 22.5 µg/mL (≈ 73.7 µM)
[3]
  inhibitory effect on M. tuberculosis gyrase supercoiling: none of the compounds showed an inhibitory effect

## CC(=O)c1c(C)[n+]([O-])c2ccc(C(=O)OC(C)C)cc2[n+]1[O-] [Compound T-084]
[1]
  MIC: 0.8 µg/mL (≈ 2.63 µM)
[2]; [4]
  MIC: 0.6 µg/mL (≈ 1.97 µM)

## COC(=O)c1ccc2c(c1)[n+]([O-])c(C(C)=O)c(C)[n+]2[O-] [Compound T-034]
[1]
  MIC: 1.1 µg/mL (≈ 3.98 µM)
[2]; [4]
  MIC: 0.7 µg/mL (≈ 2.53 µM)

## CCOC(=O)c1ccc2c(c1)[n+]([O-])c(C(=O)OCC)c(-c1ccccc1)[n+]2[O-] [Compound T-043]
[1]
  MIC: 0.54 µg/mL (≈ 1.41 µM)
[2]; [4]
  MIC: 0.47 µg/mL (≈ 1.23 µM)

## CC(=O)c1c(C(F)(F)F)[n+]([O-])c2ccc(C(=O)OC(C)C)cc2[n+]1[O-] [Compound T-070]
[1]
  MIC: ≤ 0.15 µg/mL
[2]; [4]
  MIC: 0.24 µg/mL (≈ 0.67 µM)

## COC(=O)c1ccc2c(c1)[n+]([O-])c(C(=O)c1ccccc1)c(C)[n+]2[O-] [Compound T-003]
[1]
  MIC: 3.47 µg/mL (≈ 10.3 µM)
[3]
  inhibitory effect on M. tuberculosis gyrase supercoiling: none of the compounds showed an inhibitory effect
[2]; [4]
  MIC: 1.49 µg/mL (≈ 4.4 µM)

## CCCOC(=O)c1ccc2c(c1)[n+]([O-])c(C(=O)c1ccco1)c(C(F)(F)F)[n+]2[O-] [Compound T-114]
[1]
  MIC: 2.9 µg/mL (≈ 7.07 µM)
[3]
  inhibitory effect on M. tuberculosis gyrase supercoiling: none of the compounds showed an inhibitory effect

## CCOC(=O)Cc1c(C(=O)OCC)[n+]([O-])c2cc(C(=O)OC(C)C)ccc2[n+]1[O-] [Compound T-067]
[1]
  MIC: 3.41 µg/mL (≈ 8.39 µM)
[2]; [4]
  MIC: 2.47 µg/mL (≈ 6.08 µM)

## [O-][n+]1onc2ccccc21 [Compound T-046]
[1]
  MABA MIC: 58.5 µg/mL
[2]; [4]
  LORA MIC: 46.97 µg/mL

## CC(C)OC(=O)c1ccc2no[n+]([O-])c2c1 [Compound T-063]
[1]
  MIC: 1.4 µg/mL (≈ 6.3 µM)
[2]; [4]
  MIC: 3.04 µg/mL (≈ 13.7 µM)

## CCOC(=O)c1c(C)[n+]([O-])c2ccc(C(=O)OC)cc2[n+]1[O-] [Compound T-013]
[1]
  MIC: 0.47 µg/mL (≈ 1.53 µM)
[3]
  inhibitory effect on M. tuberculosis gyrase supercoiling: none of the compounds showed an inhibitory effect
[2]; [4]
  MIC: 0.54 µg/mL (≈ 1.76 µM)

## CCOC(=O)c1c(-c2ccccc2)[n+]([O-])c2ccc(C(=O)OC)cc2[n+]1[O-] [Compound T-042]
[1]
  MIC: 1 µg/mL (≈ 2.71 µM)
[2]; [4]
  MIC: 0.5 µg/mL (≈ 1.36 µM)

## CCOC(=O)c1ccc2c(c1)[n+]([O-])c(C(N)=O)c(C)[n+]2[O-] [Compound T-045]
[1]
  MABA MIC: 29.83 µg/mL
  MIC: > 22 µg/mL
[2]; [4]
  MIC: 100 µg/mL (≈ 344 µM)

## CCOC(=O)c1ccc2c(c1)[n+]([O-])c(C(=O)OCC)c(C)[n+]2[O-] [Compound T-015]
[1]
  MIC: 0.5 µg/mL (≈ 1.56 µM)
[2]; [4]
  MIC: 0.49 µg/mL (≈ 1.53 µM)

## CCCOC(=O)c1ccc2c(c1)[n+]([O-])c(C(=O)c1ccccc1)c(C(F)(F)F)[n+]2[O-] [Compound T-115]
[1]
  MIC: 1.5 µg/mL (≈ 3.57 µM)

## CO[C@H]1/C=C/O[C@@]2(C)Oc3c(C)c(O)c4c(O)c(c(/C=N/N5CCN(C)CC5)c(O)c4c3C2=O)NC(=O)/C(C)=C\C=C\[C@H](C)[C@H](O)[C@@H](C)[C@@H](O)[C@@H](C)[C@H](OC(C)=O)[C@@H]1C [RMP, rifampicin, reference compound]
[1]
  MIC: 0.03 µg/mL (≈ 0.0365 µM)
M. tb H37Rv
  MIC: < 0.06 µg/mL
[2]; [4]
  MIC: 0.89 µg/mL (≈ 1.08 µM)

## Cc1c(C(=O)OC(C)(C)C)[n+]([O-])c2cc(C(=O)OC(C)C)ccc2[n+]1[O-] [Compound T-066]
[1]
  MIC: 68.6 µg/mL (≈ 189 µM)
[2]; [4]
  MIC: > 100 µg/mL
[2]
  LORA percentage in parentheses after the MIC bound: 77%

## CCCOC(=O)c1ccc2c(c1)[n+]([O-])c(C(=O)OCC)c(C)[n+]2[O-] [Compound T-090]
[1]
  MIC: 0.8 µg/mL (≈ 2.39 µM)

## CCCOC(=O)c1ccc2c(c1)[n+]([O-])c(C(=O)OCC)c(C(F)(F)F)[n+]2[O-] [Compound T-124]
[1]
  MIC: 3 µg/mL (≈ 7.73 µM)

## CCOC(=O)Cc1c(C(=O)OCC)[n+]([O-])c2cc(C(=O)OC)ccc2[n+]1[O-] [Compound T-037]
[1]
  MIC: 1.2 µg/mL (≈ 3.17 µM)
[2]; [4]
  MIC: 1.9 µg/mL (≈ 5.02 µM)

## NNC(=O)c1ccncc1 [INH, isoniazid, reference compound]
[1]
  MIC: 0.12 µg/mL (≈ 0.875 µM)
[2]; [4]
  MIC: > 128 µg/mL

## CC(C)OC(=O)c1ccc2c(c1)[n+]([O-])c(C(=O)c1ccco1)c(C(F)(F)F)[n+]2[O-] [Compound T-073]
[1]
  MIC: 0.7 µg/mL (≈ 1.71 µM)
[2]; [4]
  MIC: 0.6 µg/mL (≈ 1.46 µM)

## CCCOC(=O)c1ccc2c(c1)[n+]([O-])c(C(=O)Nc1ccccc1)c(C)[n+]2[O-] [Compound T-125]
[1]
  MIC: 12.3 µg/mL (≈ 32.3 µM)
[3]
  inhibitory effect on M. tuberculosis gyrase supercoiling: none of the compounds showed an inhibitory effect

## CCOC(=O)c1ccc2c(c1)[n+]([O-])c(C(=O)CC)c(C(F)(F)F)[n+]2[O-] [Compound T-026]
[1]
  MABA MIC: 22.5 µg/mL
  MIC: > 22 µg/mL
[2]; [4]
  MIC: 2.5 µg/mL (≈ 6.98 µM)

## CCCOC(=O)c1ccc2c(c1)[n+]([O-])c(C(=O)C(C)(C)C)c(C)[n+]2[O-] [Compound T-091]
[1]
  MIC: > 100 µg/mL
  MABA percentage in parentheses after the MIC bound: 33%

## CC(C)OC(=O)c1ccc2c(c1)[n+]([O-])c(C(=O)c1ccccc1)c(C(F)(F)F)[n+]2[O-] [Compound T-071]
[1]
  MIC: 1.19 µg/mL (≈ 2.83 µM)
[2]; [4]
  MIC: 0.64 µg/mL (≈ 1.52 µM)

## Cc1c(C(=O)Nc2ccccc2)[n+]([O-])c2cc(C(=O)OC(C)C)ccc2[n+]1[O-] [Compound T-097]
[1]
  MIC: > 20 µg/mL
  MABA percentage in parentheses after the MIC bound: 6%
[2]; [4]
  MIC: > 20 µg/mL
[2]
  LORA percentage in parentheses after the MIC bound: 33%

## COC(=O)c1c(C)[n+]([O-])c2ccc(C(=O)OC(C)C)cc2[n+]1[O-] [Compound T-064]
[1]
  MIC: 0.58 µg/mL (≈ 1.81 µM)
[3]
  inhibitory effect on M. tuberculosis gyrase supercoiling: none of the compounds showed an inhibitory effect
[2]; [4]
  MIC: 0.56 µg/mL (≈ 1.75 µM)

## CCCOC(=O)c1ccc2c(c1)[n+]([O-])c(C(N)=O)c(C)[n+]2[O-] [Compound T-130]
[1]
  MIC: 2.9 µg/mL (≈ 9.5 µM)

## COC(=O)c1ccc2c(c1)[n+]([O-])c(C(=O)Nc1ccccc1)c(C)[n+]2[O-] [Compound T-012]
[1]
  MIC: 1.07 µg/mL (≈ 3.03 µM)
[3]
  inhibitory effect on M. tuberculosis gyrase supercoiling: none of the compounds showed an inhibitory effect
[2]; [4]
  MIC: 0.86 µg/mL (≈ 2.43 µM)

## CCCOC(=O)c1ccc2c(c1)[n+]([O-])c(C(=O)c1ccccc1)c(C)[n+]2[O-] [Compound T-132]
[1]
  MIC: 2.3 µg/mL (≈ 6.28 µM)

## CCCOC(=O)c1ccc2c(c1)[n+]([O-])c(C(C)=O)c(C)[n+]2[O-] [Compound T-126]
[1]
  MIC: 3 µg/mL (≈ 9.86 µM)

## Cc1c(C(=O)c2ccccc2)[n+]([O-])c2cc(C(=O)OC(C)C)ccc2[n+]1[O-] [Compound T-098]
[1]
  MIC: 4.59 µg/mL (≈ 12.5 µM)
[2]; [4]
  MIC: 2.87 µg/mL (≈ 7.83 µM)

## CCCOC(=O)c1ccc2c(c1)[n+]([O-])c(C(C)=O)c(C(F)(F)F)[n+]2[O-] [Compound T-113]
[1]
  MIC: 3 µg/mL (≈ 8.37 µM)

## CC(C)OC(=O)c1ccc2c(c1)[n+]([O-])c(C(=O)C(C)(C)C)c(C(C)(C)C)[n+]2[O-] [Compound T-107]
[1]
  MIC: 2.1 µg/mL (≈ 5.41 µM)

## CCCOC(=O)c1ccc2c(c1)[n+]([O-])c(C(=O)OCC)c(C(=O)C(=O)OCC)[n+]2[O-] [Compound T-112]
[1]
  MIC: 1.4 µg/mL (≈ 3.33 µM)
